Assay results: patent US20030187261A1, “Purine derivatives, process for their preparation and use thereof” (priority 2000, published 2003)
Entries after “also recorded” stand apart in the source; their conditions may differ. Where two headings read alike, the source gives them in different places.

Tests used:
[1] = tested on: CD34+ hematopoietic progenitors (HPC) from adult bone marrow; assay: myeloid colony-forming unit (CFU) assay; type: cell-based, human; conditions: for IC50: 14 days, methylcellulose, total colony output; for output of the different types of myeloid colonies (CFU-E, CFU-G and CFU-M): scored differentially
[2] = tested on: adult bone marrow CD34+CD38- cells; assay: pre-CFU assay; type: cell-based, human; conditions: 14 day liquid culture, total clonogenic output after secondary methylcellulose culture
Description: […]. Cells with low-to-medium forward and low side scatter, highly positive green (CD34) fluorescence, and an orange (CD38) fluorescence signal lower than the mean fluorescence of cells labeled with an irrelevant isotype-matched control antibody+2 standard deviations were retained as CD34^+CD38^− cells and used in pre-CFU assays.
Pre-CFU assays were initiated by performing liquid cultures of CD34^+CD38^− cells in duplicate in 96-well flat-bottomed plates in IMDM/10% FCS, 1% bovine serum albumin (BSA), 100 U/ml IL-1, 200 U/ml IL-6, 30 U/ml IL-3 and 100 ng/ml stem cell factor (SCF). Pre-CFU cultures were initiated with 500 CD34^+CD38^− cells/well (200 μl). After 14 days of culture at 37° C. in 7.5% O2 and 5% CO2 in a fully humidified incubator, the number of cells in each well was counted. Subsequently, the cells were harvested, washed three times in IMDM/10% FCS, and plated in duplicate at 500 cells/well (1000 μl) in secondary methylcellulose CFU cultures as described for CFU assays.
Pre-CFU were cultured starting from adult bone marrow CD34^+CD38^− cells, that had been isolated using the FCM cell sorter. Novel compounds were added at different concentrations to the primary 14 day liquid culture. IC50 was calculated from dose-response curves from total clonogenic output after secondary methylcellulose culture (Table 5).

[3] = tested on: KG1; assay: clonogenic output of KG1 in methylcellulose; type: cell-based, human; conditions: 25 μM, 14 days
Protocol: Cell lines: Human leukemic cell lines were obtained from the American Type Culture Collection (ATCC, Rockville, Md., USA). They were cultured in Iscove's Modified Dulbecco's Medium (IMDM) supplemented with 10% heat inactivated fetal calf serum (FCS), 200 U/ml penicillin, 200 μg/ml streptomycin and 1 μg/ml amphotericin B. Cells were cultured in a 5% CO2-95% air fully humidified incubator. For effects on clonogenic output, 1000 cells/well were plated in duplicate in methylcellulose (0.9%), supplemented with 20% FCS and cultured for 14 days.
Clonogenic output of KG1 was tested in methylcellulose with 25 μM of some of the novel compounds.

[4] = tested on: myeloid leukemia KG1 cell line; assay: cell growth of KG1 cell line, flow cytometric cell count; conditions: for IC50: read-out: KGI IC50
[5] = tested on: B16 melanoma; assay: MTT cytotoxicity assay, B16; type: cell-based, mouse; conditions: Mus musculus, B16, 72 hours (TCS50 in the method)
How it was run: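 Cells pre-incubated 24 h, then exposed to six 4-fold dilutions (top well concentration typically 266.7 μM) in duplicate for 72 h at 37 °C, 5% CO2. MTT read-out, SDS-solubilized formazan measured at 540 nm. TCS50, the concentration lethal to 50% of tumour cells, derived from dose-response curves.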

IC50 [1] [µM] | IC50 [2] [µM] | IC50 ([4]; 96 hours of culture) [µM] | IC50 ([1]; Homo sapiens, 336 h) [µM] | IC50 ([2]; Homo sapiens, 336 h) [µM] | IC50 ([4]; Homo sapiens, KG-1, 96 h) [µM] | Molecule | output of the different types of myeloid colonies (CFU-E, CFU-G and CFU-M) [1] | Colony output vs. control cultures without novel compound [3] [%] | cell number after 6 hours of exposure, wash and 7 days in drug-free medium ([4]; KG1, compared to control without novel compounds) | IC50 [5] [µM] | effectiveness on KG1 compared with normal PBMC ([4]; FIG. 2)
8.5 | 3.5 | 16 ± 1.3 | – | – | – | 2-(3-aminoethylamino)-6-(3,3-dihydroxybenzyl)amino-9-isopropylpurine [P28] | significantly lower colony output | 0 | (some) recovery of cell number | – | –
– | – | – | > 50 | > 25 | 8 ± 0.6 | CCCCCCNc1nc(NC(CO)c2ccccc2)c2ncn(C(C)C)c2n1 (stereo not shown) [P23, 2-(hexylamino)-6-(1-phenyl-2-hydroxyethylamino)-9-isopropylpurine] | significantly lower colony output | 19 | – | 36.8 | significantly more effective on KG1 than on normal PBMC; also recorded: significantly more effective on KG1 than on normal-PBMC
